Activity calls are given as the source filed them. No cut-off for these calls is given here.
Columns and labels:
[1] = molecular target: T1, Tyrosinase (Homo sapiens) (UniProt P14679); experiment: Inhibition of tyrosinase (unknown origin)
T1 sequence (whole entry): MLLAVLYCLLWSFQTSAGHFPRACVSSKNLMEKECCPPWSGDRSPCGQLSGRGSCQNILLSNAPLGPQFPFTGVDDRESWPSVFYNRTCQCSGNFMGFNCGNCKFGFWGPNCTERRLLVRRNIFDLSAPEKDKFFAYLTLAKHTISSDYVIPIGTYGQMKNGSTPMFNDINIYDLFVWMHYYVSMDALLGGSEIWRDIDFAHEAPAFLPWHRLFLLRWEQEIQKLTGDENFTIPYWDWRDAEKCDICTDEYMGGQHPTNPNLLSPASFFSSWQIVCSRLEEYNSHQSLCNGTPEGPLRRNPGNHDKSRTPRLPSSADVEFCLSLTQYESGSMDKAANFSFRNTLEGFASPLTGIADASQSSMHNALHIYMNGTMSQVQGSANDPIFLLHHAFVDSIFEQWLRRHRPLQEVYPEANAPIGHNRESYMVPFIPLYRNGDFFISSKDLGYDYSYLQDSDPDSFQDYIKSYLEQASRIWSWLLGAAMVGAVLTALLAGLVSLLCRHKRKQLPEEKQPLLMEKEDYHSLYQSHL

Homo sapiens = organism: Homo sapiens; experiment: Inhibition of alpha-chymotrypsin (unknown origin)
Alpha-glucosidase MAL12 = Alpha-glucosidase MAL12 (Saccharomyces cerevisiae S288c, UniProt P53341); experiment: Inhibition of Saccharomyces cerevisiae alpha-glucosidase using p-nitrophenyl-alpha-D-glucopyranoside as substrate preincubated for 10 mins measured after 30 mins
Chain of Alpha-glucosidase MAL12 (P53341 whole entry): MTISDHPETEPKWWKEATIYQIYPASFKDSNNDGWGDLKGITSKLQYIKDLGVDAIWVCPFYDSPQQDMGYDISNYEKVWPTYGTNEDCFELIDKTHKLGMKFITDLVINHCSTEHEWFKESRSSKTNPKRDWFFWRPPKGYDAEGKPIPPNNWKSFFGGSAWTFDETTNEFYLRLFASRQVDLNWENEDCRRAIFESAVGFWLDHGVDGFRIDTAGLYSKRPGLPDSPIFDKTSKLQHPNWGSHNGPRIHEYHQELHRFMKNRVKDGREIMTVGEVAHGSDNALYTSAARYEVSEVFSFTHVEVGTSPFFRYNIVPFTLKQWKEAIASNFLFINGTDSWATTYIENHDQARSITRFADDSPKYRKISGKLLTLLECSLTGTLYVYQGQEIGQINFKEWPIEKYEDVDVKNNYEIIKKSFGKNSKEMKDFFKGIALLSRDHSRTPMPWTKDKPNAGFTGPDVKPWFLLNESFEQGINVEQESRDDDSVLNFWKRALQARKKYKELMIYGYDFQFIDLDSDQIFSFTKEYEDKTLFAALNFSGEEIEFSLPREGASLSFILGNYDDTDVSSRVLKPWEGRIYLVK

Structure (SMILES) | inhibition [1] | inhibition (Homo sapiens) | IC50 (Alpha-glucosidase MAL12; read-out: IC50) [µM] | IC50 (Alpha-glucosidase MAL12)
O=C(N/N=C1/c2ccccc2-c2nc3ccccc3nc21)c1ccccc1[N+](=O)[O-] | inactive | Active | 23.5 | 
c1ccc2c(c1)/C(=N/N=C1\c3ccccc3-c3nc4ccccc4nc31)c1nc3ccccc3nc1-2 | inactive | Active | 18.2 | 
O=C(N/N=C1/c2ccccc2-c2nc3ccccc3nc21)c1ccccc1Cl | inactive | Active | 25.9 | 
O=C(N/N=C1/c2ccccc2-c2nc3ccccc3nc21)c1ccc(I)cc1 | inactive | Active | 37.7 | 
COc1ccc(C(=O)N/N=C2/c3ccccc3-c3nc4ccccc4nc32)cc1O | inactive | Active |  | Not Active
O=C(N/N=C1/c2ccccc2-c2nc3ccccc3nc21)c1ccc([N+](=O)[O-])cc1 | inactive | Active | 29.5 | 
O=C(N/N=C1/c2ccccc2-c2nc3ccccc3nc21)c1ccc(Br)cc1 | inactive | Active | 22.7 | 
O=C1c2ccccc2-c2nc3ccccc3nc21 |  |  | 62.5 | 
O=C(N/N=C1/c2ccccc2-c2nc3ccccc3nc21)c1ccccc1Br | inactive | Active | 23.1 | 
Nc1ccccc1C(=O)N/N=C1/c2ccccc2-c2nc3ccccc3nc21 | inactive | Active | 62.3 | 

More lines, now with the values ahead:

inhibition [1] | inhibition (Homo sapiens) | IC50 (Alpha-glucosidase MAL12; read-out: IC50) [µM] | IC50 (Alpha-glucosidase MAL12) | Structure (SMILES)
inactive | Active | 90.9 |  | O=C(N/N=C1/c2ccccc2-c2nc3ccccc3nc21)c1cccc(F)c1
inactive | Active | 53.4 |  | O=C(N/N=C1/c2ccccc2-c2nc3ccccc3nc21)c1ccc(F)cc1
inactive | Active | 99.9 |  | O=C(N/N=C1/c2ccccc2-c2nc3ccccc3nc21)c1ccc(Cl)cc1
inactive | Active | 102 |  | O=C(N/N=C1/c2ccccc2-c2nc3ccccc3nc21)c1ccc(O)cc1
inactive | Active | 77.5 |  | O=C(N/N=C1/c2ccccc2-c2nc3ccccc3nc21)c1cccc(I)c1
inactive | Active |  | Not Active | O=C(N/N=C1/c2ccccc2-c2nc3ccccc3nc21)c1ccccc1
inactive | Active | > 500 |  | Cc1ccc(C(=O)N/N=C2/c3ccccc3-c3nc4ccccc4nc32)cc1
inactive | Active | 105 |  | O=C(N/N=C1/c2ccccc2-c2nc3ccccc3nc21)c1cccc(Cl)c1
inactive | Active | 113 |  | O=C(N/N=C1/c2ccccc2-c2nc3ccccc3nc21)c1cccc(Br)c1

Reference: ChEMBL document CHEMBL3102837, “Synthesis of novel indenoquinoxaline derivatives as potent α-glucosidase inhibitors” (Bioorg Med Chem, 2014)
